# Target: cyclic AMP phosphodierterase
# Test: cyclic AMP phosphodiesterase activity in rat gastrocnemius muscle homogenates (Dixon plot)
# Type: biochemical
# Conditions: compounds of formula (I); homogenates of rat gastocnemius muscle; 0.31 uM cyclic AMP as substrate; Dixon plot extrapolation; read-out: Apparent Ki value.
# Protocol: The activity of cyclic AMP phosphodierterase in homogenates of rat gastocnemius muscle was measured in the presence of various concentrations of compounds of formulae (I), (II), (III), (IV) or (V) using 0.31 uM cyclic AMP as substration. The reciprocal of the reaction rate was plotted on the y axis against the concentration of each compound on the x axis (Dixon plot). The apparent Ki value was estimated by extrapolating the steeper linear portion of the Dixon plot to the x axis and obtaining the negative intercept on the x axis.
row,SMILES,Ki [µM]
1,CCCCn1c(=O)c2c(ncn2C(C)C(C)=O)n(CC)c1=O (centres unmarked),24.8
2,CCCCn1c(=O)c2c(ncn2C(C)C(C)=O)n(CCCC)c1=O (centres unmarked),30.1
3,CCCCn1c(=O)c2c(ncn2C(C)CC(C)=O)n(CCCC)c1=O (centres unmarked),17.5
4,"CC(=O)Cn1cnc2c1c(=O)n(C(C)C)c(=O)n2C(C)C [1,3-di-iso-propyl-7-(2-oxopropyl) xanthine]",6.1
5,CCCn1c(=O)c2c(ncn2CCC(C)=O)n(CCC)c1=O [formula (I) R^1=C3H7 R^2=C3H7 X=-(CH2)2-],27
6,"CCCCn1c(=O)c2c(ncn2CCC(C)=O)n(CC)c1=O [formula (I) R^1=C4H9 R^2=C2H5 X=-(CH2)2-, 1-n-butyl 3-ethyl-7-(3-oxobutyl) xanthine]",12
7,CCCCn1c(=O)c2c(ncn2CC(C)=O)n(CC)c1=O [formula (I) R^1=C4H9 R^2=C2H5 X=-CH2-],21
8,"CCCCn1c(=O)c2c(ncn2CC(C)=O)n(CCC)c1=O [formula (I) R^1=C4H9 R^2=C3H7 X=-CH2-, 1-n-butyl 3-n-propyl-7-(2-oxopropyl) xanthine]",2
9,"CCCCn1c(=O)c2c(ncn2CCC(C)=O)n(CCCC)c1=O [formula (I) R^1=C4H9 R^2=C4H9 X=-(CH2)2-, 1,3-di-n-butyl-7-(3-oxobutyl) xanthine]",25
10,CCCCn1c(=O)c2c(ncn2CCCC(C)=O)n(CCCC)c1=O [formula (I) R^1=C4H9 R^2=C4H9 X=-(CH2)3-],39
11,"CCCCn1c(=O)c2c(ncn2CCCCC(C)=O)n(CCCC)c1=O [formula (I) R^1=C4H9 R^2=C4H9 X=-(CH2)4-, 1,3-di-n-butyl-7-(5-oxohexyl)xanthine]",14.1
12,"CCCCn1c(=O)c2c(ncn2CC(C)=O)n(CCCC)c1=O [formula (I) R^1=C4H9 R^2=C4H9 X=-CH2-, 1,3-di-n-butyl-7-(2-oxopropyl) xanthine]",3.3

# Same assay, conditions: compounds of formula (II); homogenates of rat gastocnemius muscle; 0.31 uM cyclic AMP as substrate; Dixon plot extrapolation; read-out: Apparent Ki Value
row,SMILES,Ki [µM]
1,CCCCn1c(=S)c2c(ncn2CC(C)=O)n(CC)c1=O,41
2,CCCCn1c(=S)c2c(ncn2CCC(C)=O)n(CC)c1=O,22.9
3,"CCCCn1c(=O)c2c(ncn2CC(C)=O)n(CCCC)c1=S [1,3-di-n-butyl-7-(2-oxopropyl)-2-thioxanthine]",2.5

# Same assay, conditions: compounds of formula (III); homogenates of rat gastocnemius muscle; 0.31 uM cyclic AMP as substrate; Dixon plot extrapolation; read-out: Apparent Ki value
row,SMILES,Ki [µM]
1,CCn1c(=O)c2c(ncn2CC2(C)OCCO2)n(CC)c1=O,73
2,CCCCn1c(=O)c2c(ncn2CC2(C)OCCO2)n(CC)c1=O,45
3,"CCCCn1c(=O)c2c(ncn2CC(C)(OC)OC)n(CCCC)c1=O [1,3-di-n-butylxanthin-7-yl propan-2-one, dimethyl ketal]",27
4,"CCCCn1c(=O)c2c(ncn2CC2(C)OCCO2)n(CCCC)c1=O [2-methyl-2-[(1,3-di-n-butylxanthin-7-yl)methyl]-1,3-di oxolane]",29

# Same assay, conditions: compounds of formula (V); homogenates of rat gastocnemius muscle; 0.31 uM cyclic AMP as substrate; Dixon plot extrapolation; read-out: Apparent Ki value
row,SMILES,Ki [µM]
1,"CCCCn1c(=O)n(CCCCC(C)=O)c(=O)c2c1ncn2CC(C)=O [formula (V) R^12=C4H9, 1-(5-oxohexyl)-3-n-butyl-7-(2-oxopropyl) xanthine]",3.9

# Reference: EP0195496A2, “Use of xanthines in the treatment of proliferative skin disease” (BEECHAM GROUP PLC, priority 1985, dated 1986)
